Measured values as given in US20100221341A1, “Alanine-Based Peptide Hydrogels” (Drexel University, priority 2009, published 2010).
Ends that are not written are not given here.

Columns and labels:
Type in all cases: physicochemical
Hydrogel formation = assay: Hydrogel formation
Procedure: For the FT-IR (Fourier transform infrared), CD (circular dichroism), and Raman measurements of Ac-(AAKA)4-NH2, unless otherwise described, the peptide was dissolved in acidic D2O (pD=1.4) at a concentration of ˜15 mg/mL (˜10.5 mM), where the D2O was made acidic by the addition of DCl (Sigma-Aldrich). […] The measurements for the gelated state of the 12-mer, Ac-(AAKA)3-NH2, were carried out similarly, at a concentration of ˜27 mg/mL in D2O (pD=1.4). For the ECD measurements, Ac-(AAKA)3-NH2 and (AAKA)4 were dissolved in acidic D2O at concentrations of 2.4 mg/mL and 1 mg/mL, respectively, and the samples were measured at room temperature.
NaCl was added to a freshly aqueous solution of (AAKA)4, wherein the concentration of peptide was equal to or higher than 0.5 wt %. […] An example of such hydrogel is illustrated in FIG. 15.

[1] = Rheology (viscosity) of peptide solutions with NaCl
Procedure: Rheology measurements were made for solutions of (AAKA)4 (concentration of 5 mg/mL or 3.5 mM) in 0.5 M and 1.0 M NaCl, as shown in FIG. 16. […] The shear-thinning behavior observed in these experiments was consistent with other oligopeptides hydrogels (Schneider, […], J. Am. Chem. Soc. 124:15030).
Another rheology experiment is illustrated in FIG. 17, for a solution of (AAKA)4 (concentration of 5 mg/mL) in 0.0 M, 1.0 M and 2.0 M NaCl. FIG. 17 illustrates three experimental curves for each concentration of NaCl.
Yet another rheology experiment is illustrated in FIG. 18, for a 5 mg/mL and a 10 mg/mL solution of (AAKA)4 in 1 M NaCl. FIG. 18 illustrates three experimental curves for each value of concentration of peptide.
As illustrated above, (AAKA)4 was conformationally unstable upon dissolution in water, prior to the addition of salt and consequent hydrogel formation. […] This is illustrated in FIG. 19, where the viscosity of a 5 mg/mL (AAKA)4 solution comprising 2 M NaCl was compared with the viscosity of a similar peptide solution wherein NaCl was added after ˜24 hours.

[2] = Temperature-dependent UV-CD spectra; conditions: 3.5 mM in D2O, pH 2.7; intersection of two fitted straight lines
Procedure: (§1) The Raman spectra were obtained with the 442 nm (40 mW) excitation from a HeCd laser (Model IK 4601R-E, Kommon Electrics, USA) and recorded with a RM 100 Remishaw confocal microscope. The UV ECD spectra in the wavelength range of 180-250 nm of peptides were measured with a JASCO J-810 spectrapolarimeter in a 0.1 mm quartz cell with 0.05 nm resolution. Samples were placed in a nitrogen purged JASCO CD module. The temperature at the cuvette was controlled by means of a Peltier-type heating system (accuracy ±1° C.) set to 20° C. The spectra were obtained by averaging ten scans and were collected as ellipticity as a function of wavelength, and converted to units of molar absorptivities via the equation: […]
The temperature-dependent UV-CD spectra of 3.5 mM Ac-(AAKA)4-NH2 measured at acid pH is illustrated in FIG. 8. […] The inset of FIG. 8 illustrates the change of the Δε measured at 214.5 nm as a function of temperature, reflecting the decrease of the β-sheet content with increasing temperature.
Two different modes were found in the relationship between the n-sheet content and temperature. The β-sheet content, as evaluated by Δε, […] linearly with temperatures below 300 K and remained almost constant after 350 K. The transition temperature between these two modes was around 320 K, as is defined by the intersection between the two straight lines, fitting the initial and final behaviors.

[3] = UV-CD kinetics after dissolution in D2O, read at 198 nm and 215 nm
Procedure: as §1
The UV-CD spectra of Ac-(AAKA)4-NH2 was acquired at various times after dissolution in deuterated water (D2O). The results are illustrated in FIG. 4. Initially a significant percentage of β-structure was observed, and in a time-dependent manner more flexible PPII-like conformations were observed.
The UV-CD kinetics of Ac-(AAKA)4-NH2, in terms of the readings at 198 nm and 215 nm as a function of time, were monitored. The results are illustrated in FIG. 5. The plots were fit to bi-exponential functions, reflecting a fast phase (˜18 minutes) and a slow phase (>300 minutes). The fast phase may reflect the kinetics of hydration/dissolution of the peptide. […]

| Substance | hydrogel formation on addition of NaCl (Hydrogel formation; 1-year-old sample, 5 mg/mL (3.5 mM)) | hydrogel formation on addition of NaCl (Hydrogel formation; fresh aqueous solution, peptide equal to or higher than 0.5 wt %, final NaCl higher than 1.0 M) | viscosity as a function of peptide and NaCl concentration ([1]; 5 mg/mL (3.5 mM) in 0.5 M and 1.0 M NaCl) | viscosity of hydrogel when salt is added with delay ([1]; 5 mg/mL, 2 M NaCl added after ~24 hours, versus NaCl added at time zero) | transition temperature of β-sheet content (Δε at 214.5 nm) [2] | hydrogel formation after dissolution (Hydrogel formation; ~15 mg/mL (~10.5 mM) in acidic D2O, pD 1.4) | fast phase of UV-CD kinetics (bi-exponential fit) [3] | slow phase of UV-CD kinetics (bi-exponential fit) [3] |
| --- | --- | --- | --- | --- | --- | --- | --- | --- |
| AAKAAAKAAAKAAAKA [(AAKA)4] | did not result in hydrogel formation | rigid self-supporting hydrogel | more viscous gels | much less viscous and rigid hydrogel |  |  |  |  |
| Ac-AAKAAAKAAAKAAAKA-NH2 [Ac-(AAKA)4-NH2] |  |  |  |  | around 320 K | formed a hydrogel shortly after dissolution | ~18 min | > 300 min |
